Results published in patent publication US10975063B2, “Compound, and production method thereof, and methods of treatment using the compound” (ABIVAX, priority 2009, dated 2021).

Assays:
HIV-1 = assay: Inhibition of HIV-1 production (p24 antigen) in infected peripheral blood mononuclear cells (PBMCs); format: cell-based, HIV-1 (AdaM) in PBMCs of healthy donors; settings: for Inhibition of p24 production in HIV infected PBMCs from different donors: tested molecules at 10 μM, p24 after 3 and 6 days of infection, number of donors with inhibition out of donors tested
Method: Within this framework, the peripheral blood mononuclear cells (PBMCs) of healthy donors are isolated by centrifugation on a FICOLL gradient. The cells are then cultivated to a density of 2.5×10^6 cells/ml with RPMI medium supplemented with 1% inactivated human AB serum, then incubated at 37° C., 5% CO2 for an additional hour. The peripheral blood mononuclear cells are then recovered and cultivated for two days in RPMI medium supplemented with 10% fetal calf serum.
A standard experiment using 96 plates to test 30 molecules in triplicates including positive and negative controls, is performed as follows:
50 10^6 Ficoll purified PBMCs (10% DMSO 90% FCS) are washed with RPMI 10% FCS and resuspended in 25 ml of RPMI 10% FCS, glutamax containing 1000 U/ml of IL2 and 5 μg/ml PHA. The cells are then incubated for 3 days at 37° C. before to be washed with 50 ml PBS then with 50 ml RPMI 10% FCS. The cells are resuspended in 100 μl of RPMI 10% FCS containing 100 U/ml IL2 and seeded in 96 wells (1.5 10^5 cells/well). Viral infection is performed with 1 ng of AdaM/well. 100 μl of tested molecules at concentration of 10 μM are added to each well. Virus production is determined by p24 antigen immunosorbent assays after 3 and 6 days of infection (Kit Innogenetics). Typically PBMCs are prepared from several healthy donors (around 11 different donors). Dose response curves were then established with selected compounds to determine IC50.

[1] = tested on: LMNA aberrant splicing (MutLMNA-luc cell line); assay: Luciferase assay for repression of LMNA aberrant splicing in stable 293 MutLMNA-luc cell line (293FLP LMNA LUC cells #8); format: cell-based; settings: 48 hours, compared to control untreated MutLMNA-luc cell line, read-out: Increase of luciferase activity
Source text: Advantage has been taken of the luciferase system. The luciferase assay is an extremely sensitive and rapid assay. Linear results are seen over at least eight orders of magnitude of enzyme concentration. Moreover, the luciferase assay is well suited for high-throughput applications. To conduct a Mid-throughput screening (MTS) for compounds repressing LMNA aberrant splicing, we have constructed a plasmid in which exon 11, intron 11 and part of exon 12 of LMNA gene were fused with luciferase cDNA (FIG. 2). Both wild type (WtLMNA-luc)(SEQ ID NO: 1) and mutant (MutLMNA-luc)(SEQ ID NO: 2) substrate harbouring exon 11 mutation have been constructed. In these constructs we have generated a single initiation codon in exon 11 such as correct splicing will lead to luciferase expression, while aberrant splicing will skip the initiation codon and thereby prevent luciferase expression. After transfection in HeLa cells, Luciferase assays (FIG. 2B) and RT-PCR (FIG. 2C) indicate that WtLMNA-luc produces predominantly wild type splicing and large amount of luciferase activity, whereas MutLMNA-luc recapitulate the aberrant splicing profile with reduced luciferase expression (FIGS. 2 B and C, compare Wt and Mut). In order to use this system in MTS, we have generated a stable 293 cell lines containing a single integrated copy of luciferase reporter containing LMNA mutation (MutLMNA-luc cell line) using the flp system from INVITROGEN. This system allows us to perform a MTS for compounds able to enhance luciferase activity.
LMNA sequences (1278 bp of exon 11, intron 11 and 46 bp of […]) were PCR-amplified from either control or patient's cells genomic DNA with specific primer PCR fragments were purified with Concert Rapid PCR purification system (Invitrogen) and subcloned at the BamHI and EcoRI restriction sites of the pSppβm3 S1 plasmid containing the βGlobin cassette (Labourier et al., 1999—Recognition of exonic splicing enhancer sequences by the Drosophila splicing repressor RSF1. Nucleic Acids Res. 27, 2377-2386) to give the βGlo3S1LMNAwt and βGlo3S1LMNAmut constructs. The chimeric (3Glo-LMNA sequences were then inserted into the pcDNA3.1D/V5-His-TOPO vector (Invitrogen) to be used in transfection and in vitro splicing experiments. A single initiation codon ATG was kept in exon 11 of LMNA and LMNA sequences described above were fused at their 3′ end to Fyrefly luciferase cDNA (LMNAlucWT) in order that removal of intron 11 generates a transcript that encode a fusion protein harbouring luciferase activity, whereas usage of the cryptic splice site of mutated exon 11 (LMNAlucMut) will remove the initiation codon preventing luciferase expression. Both sequences were cloned in pcDNA3 Flp-In vector (Invitrogen).
A stable 293 cell line containing a single copy of LMNAlucMut minigene was obtained using the Flp-In system from (Invitrogen) according to manufacture procedure. Several clones were obtained and only one clone was used to screen the whole chemical library (293FLP LMNA LUC cells #8).
In a 96 Well Plate sterile, V-shape one put […] of drug compounds at 50 mM and then add 49.5 μl of 10% DMSO.
One pipets […] of drug at 500 μM and adds 200 μL of DMEM+Hygromycin B. At this stage the concentration of drug compound is 10 μM. One shares out 100 μl in a 96 Well Microplate sterile, flat bottom (further called luciferase plate) and 50 μl in other one (further called toxicity plate).
One washes 293FLP LMNA LUC cells once with D-PBS then adds 1 ml trypsin EDTA. Incubation at 37° C. for 2-3 minutes is proceeded. Then one adds 9 ml DMEM (with 10% FCS, P/S).
Cell concentration is brought at 10^5 cells per ml with DMEM+Hygromycin B to have 10^4 cells per 100 μl.
100 μl of suspension cells is added (at 10^4 cells per 100 μl) so final concentration of compounds is […].
Medium of the wells is gently removed then washed once by adding slowly 150 μl of D-PBS 1×. D-PBS is removed. 40 μl of PLB 1× is added and incubated at RT for 30 minutes. […]

Row | Compound | Inhibition of p24 production in HIV infected PBMCs from different donors (HIV-1) | fold induction at 5 µM [1] | IC50 (HIV-1; Human immunodeficiency virus 1, PBMC, p24 production in HIV infected PBMCs, dose response curves) [nM]
1 | Cc1cccc(Nc2cc(C)c3ccccc3n2)n1 [Compound 45, 4-methyl-N-(6-methylpyridin-2-yl)quinolin-2-amine] | 4 out of 4 donnors | 3.08 | –
2 | Cc1cc(OC(F)(F)F)ccc1Nc1ccc2ccccc2n1 [Compound 82, N-[2-methyl-4-(trifluoromethoxy)phenyl]quinolin-2-amine] | 4 out of 4 donnors | 3.41 | –
3 | Fc1cccc(Nc2ccc3ccccc3n2)c1 [Compound 86, N-(3-fluorophenyl)quinolin-2-amine] | 3 out of 4 donnors | 2.77 | –
4 | O=[N+]([O-])c1cccnc1Nc1cnc2ccccc2c1 [Compound 106, N-(3-nitropyridin-2-yl)quinolin-3-amine] | 6 out of 6 donnors | 2.77 | 0.5
5 | Clc1ccc2nc(Nc3cnccn3)ccc2c1 [Compound 109, 6-chloro-N-(pyrazin-2-yl)quinolin-2-amine] | 8 out of 8 donnors | 2.79 | –
6 | Cc1ccnc(Nc2cnc3ccccc3n2)c1 [Compound 136, N-(4-methylpyridin-2-yl)quinoxalin-2-amine] | 6 out of 8 donnors | 5.2 | –
